Reference: US20110269680A1 (PANACEA BIOTEC LIMITED, priority 2008, published 2011)
Numbered stars: 1 amine (or outer) side, 2 acyl side, 3 side chain; on linkers, the order of the positions; unused ones are H or OH. Square brackets hold non-standard residues; d marks the D form. Ends that are not written are not given here. Peptide text beside a SMILES is read from it. 2Furoyl(5-aminomethyl) = O=C(c1ccc(CN[*:1])o1)[*:2]; Aib = CC(C)(N)C(=O)O

How the values were obtained:
[1] = molecular target: T1, GLP-1R (Homo sapiens, UniProt P43220); assay: In vitro receptor functional assay (cAMP) in CHO/GLP-1R cells; type: cell-based; conditions: intracellular cAMP, 30 min with 1 mM IBMX
T1 construct: expressed in transfected cells; host or cells: CHO/GLP-1R cells
Excerpt: cAMP is a ubiquitous cellular second messenger that is critical component of a signal transduction pathway linking membrane receptors and their ligands to the activation of internal cellular enzymatic activity and gene expression. cAMP is synthesized from ATP by membrane bound adenylate cyclase in a very regulated manner. In its simpler form, binding of a ligand, such as hormone or drug, to its specific G protein coupled receptor can either stimulate or inhibit adenylate cyclase depending on the GPCR being activated. […] Therefore the relative concentration of cAMP serves as a means to monitor the activity of GPCRs at the cell surface.
CHO/GLP-1R Cell Culture—CHO/GLP-1R Cells were maintained in Ham's F-12 medium containing 10% Fetal bovine serum and 1% penicillin-streptomycin antibiotic solution at 37° C. in a 5% CO2 incubator.
Cells were washed twice with PBS (pH-7.2) and incubated with 100 μl Ham's F-12 serum free medium supplemented with 0.1% BSA for 2 hr at 37° C. in 5% CO2 incubator. Cells were then incubated in 100 μl Ham's F-12 serum free medium supplemented with 0.1% BSA with 1 mM IBMX in the presence as well as absence of the peptides as per present invention in different concentration (10 nM, 1 nM, 100 pM & 10 pM). The reaction was stopped 30 min later by washing the intact cells three times with ice cold PBS (pH-7.2). The intracellular cAMP was extracted by incubating the cells in 100 μl 0.1N HCl at room temperature for 20 minutes. Mixture was dissociated by pipetting up and down until the suspension became homogenous, transferred to centrifuge tube and centrifuged at 800 rpm for 10 minutes.
Dissolved 5 pNPP tablets in 25 ml DEA buffer. Wells were emptied and washed five times with wash buffer and added 200 μl pNPP solution to each well, plate was covered and allowed to develop in dark for 90 minutes.

[2] = molecular target: T2, DPP-IV (Homo sapiens, UniProt P27487); assay: DPP-IV resistant assay; type: in vitro ADME; conditions: for half-life at 20 μM: pH 8
T2 construct: purchased Sigma-Aldrich
Procedure: 20 μM of peptides of the present invention (Sequence IDs—01, 02, 03, 04, 05, 06, 11, 12 and 13) were incubated with 60 mU/2 ml of DPP-IV (Sigma-Aldrich) enzyme at room temperature (22-24° C.) in 20 mM Tris HCl buffer, pH 8.0. The aliquots were analyzed for the amount of undegraded peptide concentration at different time intervals by RP-HPLC. The peak area integration was used to determine the amount of undegraded peptide (U.S. Pat. No. 7,067,488). T1/2 of each peptide was determined from the graph plotted between peak area of undegraded peptide vs. time. The peak area of DPP-IV untreated peptide in above mentioned buffer condition of same concentration was considered as time zero. […]

[3] = molecular target: T3, NEP 24.11 (Homo sapiens, UniProt P08473); assay: NEP 24.11 resistant (degradation) assay; type: in vitro ADME; conditions: pH 7.4; for half-life at 20 μM: buffer; for metabolised at 54 h, 20 μM: isolated enzyme neprilysin
T3 construct: purchased Calbiochem
Procedure: The aliquots were analyzed for the amount of undegraded peptide concentration at different time intervals using RP-HPLC by peak area integration. T1/2 of each peptide was determined from the graph plotted between peak area of undegraded peptide vs time.

[4] = test system: C57BL/6 mice; assay: Oral Glucose Tolerance Test (OGTT) in C57BL/6 mice, 2 μg per mouse; type: in vivo; conditions: 2 μg/mouse intraperitoneally, FIG. 4
Procedure: A volume of 100 μl of peptides of present invention (2 μg per mouse) were injected intraperitoneally into 6 hr fasted C57BL/6 normal male/female mice (4-6 wk). After 6 h of fasting, fasting glucose level was be assessed by using a Glucometer (Accu-Chek) from tail vein or the retro-orbital sinus. Glucose was given orally at the ratio 1 mg/g body wt. per mouse 5 min after the administration of peptides. Blood glucose levels were assessed at different time points i.e. at 0, 15, 30, 60, 120 and 180 min.
The graph was plotted for blood glucose (mg/dl) level against time.
The saline solution was administered to the female mice as control negative.

T3 sequence (P08473 whole entry): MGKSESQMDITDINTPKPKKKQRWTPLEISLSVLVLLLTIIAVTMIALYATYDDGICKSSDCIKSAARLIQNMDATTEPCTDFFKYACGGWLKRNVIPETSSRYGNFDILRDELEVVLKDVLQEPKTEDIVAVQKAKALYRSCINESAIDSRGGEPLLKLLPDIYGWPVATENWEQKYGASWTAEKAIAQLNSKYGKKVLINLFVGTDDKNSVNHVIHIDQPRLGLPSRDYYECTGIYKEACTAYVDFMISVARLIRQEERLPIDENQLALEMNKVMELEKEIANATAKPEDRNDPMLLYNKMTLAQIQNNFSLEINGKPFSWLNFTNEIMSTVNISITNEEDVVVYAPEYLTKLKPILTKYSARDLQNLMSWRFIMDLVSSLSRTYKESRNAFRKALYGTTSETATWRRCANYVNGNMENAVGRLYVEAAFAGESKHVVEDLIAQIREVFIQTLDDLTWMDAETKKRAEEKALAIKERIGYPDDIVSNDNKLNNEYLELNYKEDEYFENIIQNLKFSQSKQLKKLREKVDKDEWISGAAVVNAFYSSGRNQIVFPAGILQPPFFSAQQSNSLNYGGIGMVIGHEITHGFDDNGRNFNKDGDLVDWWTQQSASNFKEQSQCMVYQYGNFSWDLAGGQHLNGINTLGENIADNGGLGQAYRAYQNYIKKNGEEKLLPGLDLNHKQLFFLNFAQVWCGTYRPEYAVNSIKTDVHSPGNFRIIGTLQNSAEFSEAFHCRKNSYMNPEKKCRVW
T1 sequence (P43220 24-463, species assumed): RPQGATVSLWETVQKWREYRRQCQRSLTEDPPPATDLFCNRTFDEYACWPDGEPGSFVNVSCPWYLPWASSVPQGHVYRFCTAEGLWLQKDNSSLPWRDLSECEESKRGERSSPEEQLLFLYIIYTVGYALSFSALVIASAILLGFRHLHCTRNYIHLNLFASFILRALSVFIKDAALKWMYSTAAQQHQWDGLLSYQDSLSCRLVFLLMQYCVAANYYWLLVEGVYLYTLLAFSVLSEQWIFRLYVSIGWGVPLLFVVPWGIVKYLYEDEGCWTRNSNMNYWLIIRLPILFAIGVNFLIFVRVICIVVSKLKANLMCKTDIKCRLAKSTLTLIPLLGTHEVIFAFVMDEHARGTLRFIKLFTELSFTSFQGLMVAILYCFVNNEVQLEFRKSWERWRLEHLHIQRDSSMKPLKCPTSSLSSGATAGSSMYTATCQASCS
T2 sequence (P27487 whole entry, species assumed): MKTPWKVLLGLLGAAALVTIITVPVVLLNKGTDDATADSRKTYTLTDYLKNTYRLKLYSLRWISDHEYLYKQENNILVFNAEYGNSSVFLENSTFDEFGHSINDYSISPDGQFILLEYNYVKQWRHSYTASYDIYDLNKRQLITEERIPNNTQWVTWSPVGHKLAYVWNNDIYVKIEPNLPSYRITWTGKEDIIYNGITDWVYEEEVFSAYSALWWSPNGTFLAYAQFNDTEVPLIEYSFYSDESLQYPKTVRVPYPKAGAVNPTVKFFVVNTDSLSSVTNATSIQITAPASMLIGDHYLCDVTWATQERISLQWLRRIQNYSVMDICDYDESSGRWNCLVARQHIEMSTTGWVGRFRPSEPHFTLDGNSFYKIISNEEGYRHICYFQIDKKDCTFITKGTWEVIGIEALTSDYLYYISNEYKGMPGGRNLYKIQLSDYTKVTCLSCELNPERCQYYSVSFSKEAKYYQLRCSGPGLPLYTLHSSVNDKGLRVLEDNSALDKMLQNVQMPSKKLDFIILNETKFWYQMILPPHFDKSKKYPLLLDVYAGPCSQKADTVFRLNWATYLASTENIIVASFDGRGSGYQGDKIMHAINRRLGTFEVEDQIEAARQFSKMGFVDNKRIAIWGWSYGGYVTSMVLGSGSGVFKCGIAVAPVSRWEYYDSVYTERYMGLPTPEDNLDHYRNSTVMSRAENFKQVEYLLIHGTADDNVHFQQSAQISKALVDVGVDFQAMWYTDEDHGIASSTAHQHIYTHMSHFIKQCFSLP

Compound | EC50 [1] | Percentage degradation in hrs [2] | half-life at 20 μM [2] | half-life at 20 μM [3] | metabolised at 54 h, 20 μM [3] | percent reduction in blood glucose (AUC0-60) compared with GLP-1(7-37) parent [4]
CC[C@H](C)[C@H](NC(=O)[C@H](Cc1ccccc1)NC(=O)[C@H](CCC(=O)O)NC(=O)[C@H](CCCCN)NC(=O)[C@H](C)NC(=O)[C@H](C)NC(=O)[C@H](CCC(N)=O)NC(=O)CNC(=O)[C@H](CCC(=O)O)NC(=O)[C@H](CC(C)C)NC(=O)[C@H](Cc1ccc(O)cc1)NC(=O)[C@H](CO)NC(=O)[C@H](CO)NC(=O)[C@@H](NC(=O)[C@H](CC(=O)O)NC(=O)[C@H](CO)NC(=O)[C@@H](NC(=O)[C@H](Cc1ccccc1)NC(=O)[C@@H](NC(=O)CNC(=O)[C@H](CCC(=O)O)NC(=O)c1ccc(CNC(=O)[C@@H](N)Cc2c[nH]cn2)o1)[C@@H](C)O)[C@@H](C)O)C(C)C)C(=O)N[C@@H](C)C(=O)N[C@@H](Cc1c[nH]c2ccccc12)C(=O)N[C@@H](CC(C)C)C(=O)N[C@H](C(=O)N[C@@H](CCCCN)C(=O)NCC(=O)N[C@@H](CCCNC(=N)N)C(N)=O)C(C)C [Seq ID No. 03] | 61 pM | 13% | > 72 h | 29 h | 96.8% | 
CC[C@H](C)[C@H](NC(=O)[C@H](Cc1ccccc1)NC(=O)[C@H](CCC(=O)O)NC(=O)[C@H](CCCCN)NC(=O)[C@H](C)NC(=O)[C@H](C)NC(=O)[C@H](CCC(N)=O)NC(=O)CNC(=O)[C@H](CCC(=O)O)NC(=O)[C@H](CC(C)C)NC(=O)[C@H](Cc1ccc(O)cc1)NC(=O)[C@H](CO)NC(=O)[C@H](CO)NC(=O)C(C)(C)NC(=O)[C@H](CC(=O)O)NC(=O)[C@H](CO)NC(=O)[C@@H](NC(=O)[C@H](Cc1ccccc1)NC(=O)[C@@H](NC(=O)CNC(=O)[C@H](CCC(=O)O)NC(=O)CNC(=O)[C@@H](N)Cc1c[nH]cn1)[C@@H](C)O)[C@@H](C)O)C(=O)NC(C)(C)C(=O)N[C@@H](Cc1c[nH]c2ccccc12)C(=O)N[C@@H](CC(C)C)C(=O)N[C@H](C(=O)N[C@@H](CCCCN)C(=O)NCC(=O)N[C@@H](CCCNC(=N)N)C(N)=O)C(C)C [Seq ID No. 05] (H-HGEGTFTSD[Aib]SSYLEGQAAKEFI[Aib]WLVKGR-NH2) | 83 pM |  | 24.7 h | 49 h | 59.4% | 
Seq ID No 01 (H[2Furoyl(5-aminomethyl)]EGTFTSDVSSYLEGQAAKEFIAWLVKGRG-NH2) |  |  |  |  |  | comparable activity to the GLP-1(7-37) parent peptide
Seq ID No.05 (HGEGTFTSDXSSYLEGQAAKEFIXWLVKGR) |  |  |  |  |  | better activity than GLP-1(7-37) parent peptide

Now from value to compound, other results behind:

EC50 [1] | Percentage degradation in hrs [2] | half-life at 20 μM [2] | half-life at 20 μM [3] | metabolised at 54 h, 20 μM [3] | Compound | percent reduction in blood glucose (AUC0-60) compared with GLP-1(7-37) parent [4]
43 pM | 43.62% | > 24 h |  |  | CC[C@H](C)[C@H](NC(=O)[C@H](Cc1ccccc1)NC(=O)[C@H](CCC(=O)O)NC(=O)[C@H](CCCCN)NC(=O)[C@H](C)NC(=O)[C@H](C)NC(=O)[C@H](CCC(N)=O)NC(=O)CNC(=O)[C@H](CCC(=O)O)NC(=O)[C@H](CC(C)C)NC(=O)[C@H](Cc1ccc(O)cc1)NC(=O)[C@H](CO)NC(=O)[C@H](CO)NC(=O)[C@@H](NC(=O)[C@H](CC(=O)O)NC(=O)[C@H](CO)NC(=O)[C@@H](NC(=O)[C@H](Cc1ccccc1)NC(=O)[C@@H](NC(=O)CNC(=O)c1ccc(CNC(=O)[C@@H](N)Cc2c[nH]cn2)o1)[C@@H](C)O)[C@@H](C)O)C(C)C)C(=O)N[C@@H](C)C(=O)N[C@@H](Cc1c[nH]c2ccccc12)C(=O)N[C@@H](CC(C)C)C(=O)N[C@H](C(=O)N[C@@H](CCCCN)C(=O)NCC(=O)N[C@@H](CCCNC(=N)N)C(=O)NCC(N)=O)C(C)C [Seq ID No. 02] | 
838 pM |  | 4.33 h |  |  | CC[C@H](C)[C@H](NC(=O)[C@H](Cc1ccccc1)NC(=O)[C@H](CCC(=O)O)NC(=O)[C@H](CCCCN)NC(=O)[C@H](C)NC(=O)[C@H](C)NC(=O)[C@H](CCC(N)=O)NC(=O)CNC(=O)[C@H](CCC(=O)O)NC(=O)[C@H](CC(C)C)NC(=O)[C@H](Cc1ccc(O)cc1)NC(=O)[C@H](CO)NC(=O)[C@H](CO)NC(=O)[C@@H](NC(=O)[C@H](CC(=O)O)NC(=O)[C@H](CO)NC(=O)[C@@H](NC(=O)[C@H](Cc1ccccc1)NC(=O)[C@@H](NC(=O)CNC(=O)[C@H](CCC(=O)O)NC(=O)[C@H]1O[C@H](OC)[C@H](NC(=O)[C@@H](N)Cc2c[nH]cn2)[C@@H](O)[C@@H]1O)[C@@H](C)O)[C@@H](C)O)C(C)C)C(=O)N[C@@H](C)C(=O)N[C@@H](Cc1c[nH]c2ccccc12)C(=O)N[C@@H](CC(C)C)C(=O)N[C@H](C(=O)N[C@@H](CCCCN)C(=O)NCC(=O)N[C@@H](CCCNC(=N)N)C(N)=O)C(C)C [Seq ID No. 06] | 
3380 pM |  |  |  |  | CC[C@H](C)[C@H](NC(=O)[C@H](Cc1ccccc1)NC(=O)[C@H](CCC(=O)O)NC(=O)[C@H](CCCCN)NC(=O)[C@H](C)NC(=O)[C@H](C)NC(=O)[C@H](CCC(N)=O)NC(=O)CNC(=O)[C@H](CCC(=O)O)NC(=O)[C@H](CC(C)C)NC(=O)[C@H](Cc1ccc(O)cc1)NC(=O)[C@H](CO)NC(=O)[C@H](CO)NC(=O)C(C)(C)NC(=O)[C@H](CC(=O)O)NC(=O)[C@H](CO)NC(=O)[C@@H](NC(=O)[C@H](Cc1ccccc1)NC(=O)[C@@H](NC(=O)CNC(=O)c1ccc(CNC(=O)[C@@H](N)Cc2c[nH]cn2)o1)[C@@H](C)O)[C@@H](C)O)C(=O)NC(C)(C)C(=O)N[C@@H](Cc1c[nH]c2ccccc12)C(=O)N[C@@H](CC(C)C)C(=O)N[C@H](C(=O)N[C@@H](CCCCN)C(=O)NCC(=O)N[C@@H](CCCNC(=N)N)C(=O)NCC(N)=O)C(C)C [Seq ID No. 10] (H-H[2Furoyl(5-aminomethyl)]GTFTSD[Aib]SSYLEGQAAKEFI[Aib]WLVKGRG-NH2) | 
